In patent US20150196638A1, “SYSTEM AND METHOD FOR USING ULTRASOUND-STIMULATED MICROBUBBLE EXPOSURES TO INDUCE CERAMIDE ACCUMULATION IN ENDOTHELIAL AND TUMOR CELLS” (priority 2012, published 2015):

Columns and labels:
[1] = tested on: HUVEC cells; experiment: Clonogenic survival assay, HUVEC; format: cell-based; conditions: 1 μM
Description: All cells were grown at 37 degrees Celsius with 5% CO2. Primary astrocytes (obtained from asmase +/+ and asmase −/− mouse brains, Sunnybrook Health Sciences Centre, Toronto, ON) were cultured in DMEM with 10% fetal bovine serum (FBS) and 5% Penicillin. HUVEC cells (Sunnybrook Health Sciences Centre, Toronto, ON, Canada) were grown in EBM-2 (Lonza, Walkersville, Md. USA) supplemented with 10 ml FBS, 0.2 ml Hydrocortisone, 2 ml hFGF-B, 0.5 ml VEGF, 0.5 ml R3-IGF-1, 0.5 ml ascorbic acid, 0.5 ml hEGF, 0.5 ml GA-1000 and 0.5 ml Heparin using EGM-2 singlequots kits. Breast and PC3 cells were grown in 1640-RPMI medium (Sigma-Aldrich Canada Inc., Oakville, ON, Canada), leukemia (AML, Ontario Cancer Institute, Toronto, ON), and KHT sarcoma cells (Sunnybrook Health Science Centre) were grown in α-MEM (Sigma-Aldrich Canada Inc., Oakville, ON), all with 10% FBS and 5% penicillin. […]
In order to treat the cells, 50 μL of 45 seconds agitated vial-mix DEFINITY® microbubbles (Perflutren lipid microspheres, Lantheus Medical Imaging, Billerica, Mass. USA) and 1.5 ml of the 2×10̂6 cells/ml solution were added to the chamber (for a 3.3% v/v bubbles concentration). […] Transducer characteristics were measured using a calibrated hydrophone in the absence and presence of the treatment set-up. […]

[2] = tested on: asmase +/+ astrocytes; experiment: Clonogenic survival assay, asmase +/+ astrocytes; format: cell-based, mouse
Description: All cells were grown at 37 degrees Celsius with 5% CO2. Primary astrocytes (obtained from asmase +/+ and asmase −/− mouse brains, Sunnybrook Health Sciences Centre, Toronto, ON) were cultured in DMEM with 10% fetal bovine serum (FBS) and 5% Penicillin. HUVEC cells (Sunnybrook Health Sciences Centre, Toronto, ON, Canada) were grown in EBM-2 (Lonza, Walkersville, Md. USA) supplemented with 10 ml FBS, 0.2 ml Hydrocortisone, 2 ml hFGF-B, 0.5 ml VEGF, 0.5 ml R3-IGF-1, 0.5 ml ascorbic acid, 0.5 ml hEGF, 0.5 ml GA-1000 and 0.5 ml Heparin using EGM-2 singlequots kits. Breast and PC3 cells were grown in 1640-RPMI medium (Sigma-Aldrich Canada Inc., Oakville, ON, Canada), leukemia (AML, Ontario Cancer Institute, Toronto, ON), and KHT sarcoma cells (Sunnybrook Health Science Centre) were grown in α-MEM (Sigma-Aldrich Canada Inc., Oakville, ON), all with 10% FBS and 5% penicillin. In order to harvest adherent cells, confluent flasks were PBS washed, after which 0.05% trypsin EDTA (Gibco, Carlsbad, Calif. USA) was added for 5 minutes to detach cells. After trypsinization, cells were centrifuged at 440 g for 10 minutes and brought to a final cell concentration of 2×10̂6 cells/ml of medium with 1.5 ml aliquots used for each treatment (i.e., 3×10̂6 cells/sample). In all experiments cells were carefully handled to avoid clumping after typrinsization and this was verified by microscopy in advance of ultrasound treatments.
For ultrasound treatments, a pulse was generated by a 2.86 cm-diameter single element transducer (IL0509HP, 500 kHz center frequency, Valpey-Fisher Inc., Hopkinton, Mass., USA) connected to a micro-positioning system. The set-up also included a cylindrical chamber (10 mm diameter) for cell exposure. The chamber had mylar windows on both sides and a magnetic stirrer to mix cells and bubbles during ultrasound exposure in order to avoid standing wave effects.
In order to treat the cells, 50 μL of 45 seconds agitated vial-mix DEFINITY® microbubbles (Perflutren lipid microspheres, Lantheus Medical Imaging, Billerica, Mass. USA) and 1.5 ml of the 2×10̂6 cells/ml solution were added to the chamber (for a 3.3% v/v bubbles concentration). Insonification took place using a peak negative pressure of 570 kPa using a pulse sequence with a 9.6% duty cycle composed of a 16 cycle tone burst and a pulse repetition frequency of 3 kHz, for a total insonification time of 2,880 milliseconds over 30 seconds. The −6 dB beamwidth for this transducer was […] and the −3 dB beamwidth was 18 mm. Transducer characteristics were measured using a calibrated hydrophone in the absence and presence of the treatment set-up.
Sphingosine-1-Phosphate (S1P) (Biomol International L.P., Plymouth Meeting, Pa. USA) was used to counteract the mechanisms leading to ceramide-mediated apoptotic cell death. In order to treat cells, 1 μM S1P was added to asmase +/+ and asmase −/− culture media one hour before damage treatments with radiation or ultrasound, and was present during trypsinization, and for clonogenic survival assays in media. The rationale for this was that any activation of ceramide-dependent cell death by treatment may take many hours to manifest and should be inhibited long term. Treatment of cells with C2-Ceramide (Sigma-Aldrich) was carried out similarly.
Radiation treatments were carried out by exposing samples to X-ray ionizing radiation (Faxitron Cabinet X-ray, Faxitron X-Ray LLC, IL) at a dose rate of 200 cGy/minute. […]

[3] = tested on: ceramide in PC3 prostate tumors; experiment: In vivo ceramide immunohistochemistry staining; parameters: species or system mice; conditions: 4 μg IV; 2 or 8 Gy with high microbubble concentration
From the text: (A) Quantification of ceramide immunohistochemistry staining of sections of PC3 prostate tumors treated with radiation and/or ultrasound-activated microbubbles. Labels indicate non (Nil), low (Low) and high concentration microbubble exposure (High) and radiation doses (0, 2 or 8 Gy). (B) Quantification of ceramide immunohistochemistry staining for experiments with S1P.
In order to test if ultrasound-stimulated microbubbles in combination with ultrasound could stimulate ceramide formation, experiments were carried out using an additional cohort of 75 animals, with five mice per group. Mice were treated as above with no microbubbles, low, and high bubble concentrations in the presence of ultrasound and combined with 0, 2, and 8 Gy radiation doses given in single fractions as above for nine cohorts of n=5 animals. In addition, 0, 2, and 8 Gy conditions with and without high-concentration microbubble exposure in the presence of ultrasound were carried out in the presence of S1P using modified protocols. This used six cohorts of n=5 mice.
For S1P treatments, 4 μg of S1P in 0.2 mL of PET (5% polyethylene glycol, 2.5% ethanol, and 0.8% Tween-80) was injected intravenously in mice 30 min prior to and 5 min after irradiation or after microbubble exposure with ultrasound and irradiation.

[4] = tested on: Human PC3 prostate cancer xenografts; experiment: ISEL / H&E cell death histology of PC3 xenograft tumors (Example 1); format: in vivo, mice
Description: Human PC3 prostate cancer (ATCC) xenografts were grown in the hind upper leg of SCID-17 mice (Charles River) by injecting 1.0×10̂6 RPMI-1640 media cultured cells subcutaneously (Wisent Biocentre), with 10% characterized serum (HyClone), and 100 U/mL of penicillin/streptomycin (Invitrogen). Tumors were grown to 7-8 mm diameter size before treatment. For treatments, ketamine and xylazine anesthetized mice were used. Vialmix device-prepared DEFINITY® (Lantheus Medical Imaging; N. Billerica, Mass.) microbubbles (perfluoropropane gas/liposome shell) were administered at doses of 3.6×10̂8 microbubbles (L, low dose) and 1.08×10̂9 microbubbles (H, high dose) in […] volumes of prepared bubbles, respectively. The final circulating concentrations were selected to be higher (100- and 300-fold, respectively) than the diagnostic dose used to ensure efficient interactions of the bubbles and microvascular walls.
Mice were immersed in a 37 degree Celsius water bath to permit ultrasound treatment and centered on the tumor. For ultrasound exposures, a focused central frequency 500-kHz transducer (IL0509HP; ValpeyFisher Inc.) with a 28.6-mm transducer element diameter was used. This was attached to a micropositioning system, and excited with sinusoidal wave generated by a waveform generator (AWG520; Tektronix), a pulse-receive power amplifier (RPR4000; Ritec Inc.), and a digital-acquisition system (Acquiris CC103, Agiulent Technologies NY). Tumors were exposed over 50 ms to a 16-cycle tone burst at 500-kHz and 3-kHz pulse repetition frequencies with a 10% duty cycle during the 50-ms window. Treatments were for 5 min, amounting to a 750-ms exposure over 5 min for all mouse treatments, with an average duty cycle of 0.25%. Specifically, at 500 kHz the pulse bandwidth of the 16-cycle tone burst was 0.032 ms. The pulse repetition period (3-KHz pulse repetition frequency) was 0.333,ms, which, over 50 ms, corresponded to 150 periods of 16-cycle tone burst or 4.8 ms (rounded to 5 ms). […] The ultrasound peak negative pressure was 570 kPa measured with a calibrated hydrophone. […]

## CCCCCCCCCCCCC/C=C/[C@@H](O)[C@H](CO)NC(C)=O [C2-Ceramide]
[1]
  survival on ceramide exposure: did not survive
[2]; 1 μM
  cell kill: no significant cell kill
[2]; ceramide alone as a control
  survival: 50±5%

## CCCCCCCCCCCCC/C=C/[C@@H](O)[C@@H](N)COP(=O)(O)O [S1P, Sphingosine-1-Phosphate]
[1]; radiation or ultrasound and microbubbles, p<0.01
  protection from apoptosis: significantly protected
[2]; 1 μM, cells treated with either radiation or ultrasound with microbubbles
  protective effect on survival: no protective effect
[2]; 1 μM, ultrasound and microbubbles prior to radiation
  protective effect on survival: protection was detected
[2]; S1P-treated, radiation
  radioresistance of wild-type astrocytes: conferred some radioresistance
[3]
  ceramide increases in the presence of S1P: increases were not apparent
[4]; 4 μg IV 30 min before and 5 min after treatments, 0, 2, 8 Gy with or without high microbubbles
  effect on apoptotic cell death induced by microbubbles and radiation: diminishment of detected apoptotic cell death

## bFGF: basic fibroblast growth factor (Sigma), a known endothelial cell protector
[4]; 0.45 μg IV 1 hour before microbubbles (1% vol/vol) with ultrasound
  effect of pre-treatment on microbubble-induced cell death: diminished the cell death
[4]; 0.45 μg IV, P=0.24
  cell death, bFGF-treated animals with ultrasound-stimulated microbubbles versus untreated control: no difference
